Data taken from patent publication US9012458B2, “Antitumor agent using compounds having kinase inhibitory effect in combination” (Eisai R&D Management Co., Ltd., priority 2010, dated 2015).
Where a name gives a salt, the structure may show the parent alone.

Test system: human glioblastoma cell line (U87MG)
Experiment: Combined effect in model animal transplanted with human glioblastoma cell line (U87MG)
Assay type: in vivo
Conditions: U87MG s.c. in nude mouse, Compound A 10 mg/kg, Compound B 100 mg/kg, oral once daily, average ± standard deviation
Protocol: The human glioblastoma cell line (U87MG) (ATCC) was cultured using a 10% FBS-containing E-MEM medium (SIGMA) in a 5% CO2 incubator under the condition of 37° C. When the cells reached a state of approximately 80% confluency, the cells were collected using trypsin-EDTA. To these cells, a Hanks' Balanced Salt Solution containing 50% Matrigel was added to prepare a suspension at a concentration of 5.0×10^7 cells/mL. The cell suspension thus obtained was subcutaneously transplanted at the lateral side of the body of a nude mouse (CAnN.Cg-FOXn1nu/CrlCrlj, Charles River Laboratories Japan, Inc.) in an amount of 0.1 mL, where each group contained six mice. Compound A (10 mg/kg, once daily, for 21 days) and Compound B (100 mg/kg, once daily, for 21 days) were orally administered, either individually or both in a row.
Setting the initial day of administration at Day 0, the major axis and the minor axis of a tumor developed in each mouse were measured using Digimatic caliper (Mitsutoyo Corporation) thereafter on Day 2, 5, 7, 9, 12, 14, 16, 19, and 21.
The tumor volume and the relative tumor volume were calculated according to the equations below. TV=major axis (mm)×minor axis^2 (mm^2)/2 RTV=TV on the day of measurement/TV on the initial day of administration

| Compound | RTV (relative tumor volume) Day 2 | RTV (relative tumor volume) Day 5 | RTV (relative tumor volume) Day 7 | RTV (relative tumor volume) Day 9 | RTV (relative tumor volume) Day 12 | RTV (relative tumor volume) Day 14 | RTV (relative tumor volume) Day 16 | RTV (relative tumor volume) Day 19 | RTV (relative tumor volume) Day 21 |
| --- | --- | --- | --- | --- | --- | --- | --- | --- | --- |
| COc1cc2nccc(Oc3ccc(NC(=O)NC4CC4)c(Cl)c3)c2cc1C(N)=O [Compound A, 4-(3-chloro-4-(cyclopropylaminocarbonyl)aminophenoxy)-7-methoxy-6-quinolinecarboxamide mesylate] | 0.95 ± 0.08 | 1.27 ± 0.07 | 1.59 ± 0.16 | 1.85 ± 0.13 | 3.29 ± 0.32 | 4.76 ± 0.49 | 6.19 ± 0.95 | 9.60 ± 1.99 | 11.53 ± 2.57 |
| CN1CCN(C2CCN(C(=O)Nc3cc(Oc4ccc(NC(=O)C5(C(=O)Nc6ccc(F)cc6)CC5)c(F)c4)ccn3)CC2)CC1 [Compound B, N-(2-fluoro-4-{[2-({[4-(4-methylpiperazin-1-yl)piperidin-1-yl]carbonyl}amino)pyridin-4-yl]oxy}phenyl)-N′-(4-fluorophenyl)cyclopropane-1,1-dicarboxamide tartrate] | 0.69 ± 0.05 | 0.61 ± 0.05 | 0.56 ± 0.10 | 0.57 ± 0.07 | 0.65 ± 0.08 | 0.73 ± 0.12 | 0.93 ± 0.13 | 1.65 ± 0.37 | 2.23 ± 0.51 |
